The source made the active and inactive calls. No cut-off for these calls is given here.

For one test, the species on record is Mus musculus. The test can be described thus: Inhibition of spontaneous calcium oscillations in Swiss Webster mouse neocortical neurons at 0.01 nM to 1000 nM measured for 2 mins by Fluo-3 AM dye based FLIPR assay.
For the next test, the system named is NCI-H460. The test can be described thus: Cytotoxicity against human NCI-H460 cells after 48 hrs by MTT assay. The class given is functional, cell-based. The following applies: NCI-H460, 48 h.

As to `NCCc1ccccc1`, the inhibition result in the test filed under Mus musculus was “Active”.

On to `O=C(CCCCCC=C(Cl)Cl)NCCc1ccccc1`, for which, in the test listed under Mus musculus, the inhibition result was “Active”. Further, in the test with NCI-H460, the IC50 (usually the midpoint of a concentration-inhibition curve) is greater than 10 µM.

For `C=CC[C@@H](C[C@@H](C[C@@H](C[C@@H](C[C@@H](C[C@@H](C[C@@H](C[C@@H](C[C@@H](C[C@@H](CCCCC)OC)OC)OC)OC)OC)OC)OC)OC)OC)OC`, the IC50 in the test on NCI-H460 was greater than 10 µM.

These data come from ChEMBL document CHEMBL4190300, “Discovery and Synthesis of Caracolamide A, an Ion Channel Modulating Dichlorovinylidene Containing Phenethylamide from a Panamanian Marine Cyanobacterium cf. Symploca Species” (J Nat Prod, 2017).
